From US10954193B2 (Vanderbilt University, priority 2013, dated 2021)
Like-named read-outs stand apart in the source and are kept apart here.

Key:
[1] = biological target: recombinant Mcl-1 (residues 172-327) (Homo sapiens (Human), UniProt Q07820); test: Bak peptide binding assay, fluorescence polarization anisotropy competition (FITC-Bak), Mcl-1; conditions: FITC-Bak peptide 10 nM, Mcl-1 14 nM;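 further: displacement of labeled Bak peptide read by fluorescence anisotropy, 10-point threefold dilutions from 20 µM top dose in 5% DMSO, 90 min incubation at room temperature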
Chain of recombinant Mcl-1 (residues 172-327) (Q07820 172-327): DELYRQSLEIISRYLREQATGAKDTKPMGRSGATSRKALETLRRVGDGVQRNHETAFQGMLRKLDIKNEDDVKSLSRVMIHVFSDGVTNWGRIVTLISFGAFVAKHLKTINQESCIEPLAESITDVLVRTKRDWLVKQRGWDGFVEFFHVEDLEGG
Procedure: Compound affinity was measured using a fluorescence polarization anisotropy competition assay. Anisotropy measurements were carried out in 384-well, black, flat-bottom plates (Greiner Bio-one, Monroe, N.C., USA). […] 10 nM FITC-Bak peptide and 14 nM recombinant Mcl-1 (residues 172-327) were added to assay buffer (3 mM dithiothreitol, 50 mM NaCl, 20 mM Tris, pH 7.5).

[2] = biological target: Bcl-xL (residues 1-209, loop 45-86 deleted) (Homo sapiens (Human), UniProt Q07817, DEL45-86); test: Bak peptide binding assay, fluorescence polarization anisotropy competition (FITC-Bak), Bcl-xL selectivity; conditions: Table 4; FITC-Bak peptide 10 nM, Bcl-xL 4 nM
Chain of Bcl-xL (residues 1-209, loop 45-86 deleted) (Q07817 other isoform, or with tags, fused parts or gaps del 45-86): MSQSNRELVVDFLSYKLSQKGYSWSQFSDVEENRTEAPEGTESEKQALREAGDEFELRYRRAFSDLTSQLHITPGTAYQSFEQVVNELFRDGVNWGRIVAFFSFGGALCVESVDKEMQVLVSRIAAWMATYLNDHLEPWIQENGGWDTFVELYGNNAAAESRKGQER
Procedure: (§1) Bak Peptide Binding Assay
(§2) Compound affinity was measured using a fluorescence polarization anisotropy competition assay. Anisotropy measurements were carried out in 384-well, black, flat-bottom plates (Greiner Bio-one, Monroe, N.C., USA). The assay was run using a fluorescein isothiocyanate-labeled BH3 peptide derived from Bak (FITC-AHx-[…]-NH2) that was purchased from GenScript (Piscataway, N.J.) at >95% purity and used without further purification. 10 nM FITC-Bak peptide and 14 nM recombinant Mcl-1 (residues 172-327) were added to assay buffer (3 mM dithiothreitol, 50 mM NaCl, 20 mM Tris, pH 7.5). For selectivity assays, 40 nM Bcl-2 (residues 1-207^A96T,G110R, Δ35-91, replaced with Bcl-xL35-50) or 4 nM Bcl-xL (residues 1-209, loop 45-86 deleted) were incubated with 10 nM FITC-Bak in assay buffer.
(§3) Compounds are diluted in DMSO in a 10-point, 3-fold serial dilution scheme. 2.5 uL compound is added to 47.5 uL of assay buffer containing FITC-Bak and protein, for a final DMSO concentration of 5% and a top concentration of 20 uM. […] The plate was mixed and incubated for 90 minutes at room temperature. Anisotropy is measured at excitation wavelength 480 nm and emission wavelength 535 nm using an EnVision Multi-label plate reader (PerkinElmer, Wellesley, Mass., USA). Fluorescence anisotropy is plotted against compound concentration to generate an IC50 (inhibitor concentration at which 50% of bound peptide is displaced) by fitting the data to a 4-parameter logistic model using XLFit software (Guildford, Surrey, UK). IC50 is converted to a binding dissociation constant (Ki value) according to the formula of Wang Z. FEBS Lett (1996) 3, 245: Ki=[I]50/([L]50/Kd+[P]0/Kd+1) where [I]50 is the concentration of the free inhibitor at 50% inhibition, [L]50 is the concentration of the free labeled ligand at 50% inhibition, [P]0 is the concentration of the free protein at 0% inhibition, Kd represents the dissociation constant of the FITC peptide probe.

K562 [3] = test: Cellular viability assay, CellTiter-Glo, K562; assay type: cell-based; conditions: Homo sapiens, Table 6 viability assay (method: reduced serum, 1% FBS)
Procedure: (§4) Cellular Viability of a Human Tumor Cell Lines
(§5) Human cancer cell lines NCI-H23, K562, NCI-H929, and MV-4-11 were cultured in media supplemented with 10% fetal bovine serum (FBS). To evaluate compound effect on cellular proliferation, cells were plated at 1,000 cells/well in 96-well tissue culture plates in a total volume of 90 uL medium supplemented with 10% FBS (Sigma, Saint Louis, Mo.). 24 hours later, 10 uL of compound (in a 2-fold serial dilution) is added to the cells for a top concentration of 50 uM and a final DMSO concentration <1%. After 72 hours, cell number was measured using the CellTiter-Glo Luminescent assay according to manufacturer's recommendations (Promega, Madison, Wis.). A viability assay in reduced serum was also conducted. Cells were plated at 5,000 cells/well in 96-well plates in a total volume of 100 uL medium supplemented with 10% FBS (Sigma, Saint Louis, Mo.). 24 hours later, the medium was replaced with 90 uL medium containing 1% FBS and the assay conducted as described. EC50 values were determined by plotting growth against compound concentration in a 4-parameter logisitic model in XLFit.

NCI-H23 [4] = test: Cellular viability assay, CellTiter-Glo, NCI-H23; assay type: cell-based; conditions: Homo sapiens, Table 6 viability assay (method: reduced serum, 1% FBS)
Procedure: as §4, §5

NCI-H23 [5] = test: Cellular proliferation, CellTiter-Glo, NCI-H23; assay type: cell-based; conditions: Homo sapiens, 10% FBS, 72 hours
Procedure: as §4, §5

K562 [6] = test: Cellular proliferation, CellTiter-Glo, K562; assay type: cell-based; conditions: Homo sapiens, 10% FBS, 72 hours
Procedure: as §4, §5

MV-4-11 [7] = test: Cellular proliferation, CellTiter-Glo, MV-4-11; assay type: cell-based; conditions: Homo sapiens, MV4-11, 10% FBS, 72 hours, read-out: EC50 on cellular proliferation, NV-4-11
Procedure: as §4, §5

MV-4-11 [8] = test: Cellular viability assay, CellTiter-Glo, MV-4-11; assay type: cell-based; conditions: Homo sapiens, MV4-11, Table 6 viability assay (method: reduced serum, 1% FBS), read-out: EC50 on cellular viability, NV-4-11
Procedure: as §4, §5

[9] = biological target: Bcl-2 (residues 1-207 A96T,G110R, Δ35-91, replaced with Bcl-xL35-50) (Homo sapiens (Human), UniProt P10415, DEL35-91/INS34DVEENRTEAPEGTESE); test: Bak peptide binding assay, fluorescence polarization anisotropy competition (FITC-Bak), Bcl-2 selectivity; conditions: Table 4; FITC-Bak peptide 10 nM, Bcl-2 40 nM
Chain of Bcl-2 (residues 1-207 A96T,G110R, Δ35-91, replaced with Bcl-xL35-50) (P10415 other isoform, or with tags, fused parts or gaps, stated change not applied): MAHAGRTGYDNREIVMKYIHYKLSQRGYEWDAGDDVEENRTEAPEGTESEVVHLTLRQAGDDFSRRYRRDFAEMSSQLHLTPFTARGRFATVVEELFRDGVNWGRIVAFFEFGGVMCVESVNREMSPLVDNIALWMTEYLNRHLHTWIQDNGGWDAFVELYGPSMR
Procedure: as §1, §2, §3

NCI-H929 = test: Cellular proliferation, CellTiter-Glo, NCI-H929; assay type: cell-based; conditions: Homo sapiens, 10% FBS, 72 hours
Procedure: as §4, §5

[10] = Table 3, binned ranges, read-out: Ki for inhibition of Mcl-1

SMILES | Ki [1, 10] | Ki ([1]; Table 4, read-out: Ki Mcl-1) | Ki [2] | EC50 (K562 [6]) | further results
Cc1cc(OCCCc2cn(CCC(=O)NS(C)(=O)=O)c3cc(Cl)ccc23)cc(C)c1Cl [Example 20, 3-(6-chloro-3-(3-(4-chloro-3,5-dimethylphenoxy)propyl)-1H-indol-1-yl)-N-(methylsulfonyl)propanamide] | 0.101 to 0.299 µM | 0.36 µM | 10 µM |  | 
Cc1cc(OCCCc2c(C)n(CCC(=O)O)c3cc(Cl)ccc23)cc(C)c1Cl [Example 44, 3-(6-chloro-3-(3-(4-chloro-3,5-dimethylphenoxy)propyl)-2-methyl-1H-indol-1-yl)propanoic acid] | 0.101 to 0.299 µM | 0.17 µM | 7.9 µM |  | 
Cc1cc(OCCCc2c(C)n(CCC(=O)O)c3c(-c4ccnn4C)cccc23)cc(C)c1Cl [Example 70, 3-(3-(3-(4-chloro-3,5-dimethylphenoxy)propyl)-2-methyl-7-(1-methyl-1H-pyrazol-5-yl)-1H-indol-1-yl)propanoic acid] | ≤ 0.1 µM |  |  |  | EC50 (K562 [3]): 4.1 µM; EC50 (NCI-H23 [4]): 5.8 µM
Cc1ccncc1-c1cccc2c(CCCOc3cc(C)c(Cl)c(C)c3)c(C)n(CCC(=O)O)c12 [Example 71, 3-(3-(3-(4-chloro-3,5-dimethylphenoxy)propyl)-2-methyl-7-(4-methylpyridin-3-yl)-1H-indol-1-yl)propanoic acid] | ≤ 0.1 µM |  |  |  | EC50 (K562 [3]): 7 µM; EC50 (NCI-H23 [4]): 9.9 µM
Cc1cc(OCCCc2c(C)n(CCC(=O)O)c3c(-c4c(C)n[nH]c4C)cccc23)cc(C)c1Cl [Example 74, 3-(3-(3-(4-chloro-3,5-dimethylphenoxy)propyl)-7-(3,5-dimethyl-1H-pyrazol-4-yl)-2-methyl-1H-indol-1-yl)propanoic acid] | ≤ 0.1 µM |  |  | 21.2 µM | EC50 (K562 [3]): 2 µM; EC50 (NCI-H23 [5]): 19.8 µM; EC50 (NCI-H23 [4]): 5.4 µM; EC50 (MV-4-11 [7]): 11.5 µM
Cc1cc(OCCCc2c(C)n(CCC(=O)O)c3c(-c4c(C)nn(C)c4C)cccc23)cc(C)c1Cl [Example 76, 3-(3-(3-(4-chloro-3,5-dimethylphenoxy)propyl)-2-methyl-7-(1,3,5-trimethyl-1H-pyrazol-4-yl)-1H-indol-1-yl)propanoic acid] | ≤ 0.1 µM | 0.007 µM | 7.9 µM | 17.1 µM | EC50 (MV-4-11 [7]): 16.2 µM; EC50 (MV-4-11 [8]): 2.8 µM; Ki [9]: 7.1 µM
Cc1cc(OCCCc2c(C)n(CCC(=O)O)c3c(-c4c(C)nn(C(C)C)c4C)cccc23)cc(C)c1Cl [Example 78, 3-(3-(3-(4-chloro-3,5-dimethylphenoxy)propyl)-7-(1-isopropyl-3,5-dimethyl-1H-pyrazol-4-yl)-2-methyl-1H-indol-1-yl)propanoic acid] | ≤ 0.1 µM |  |  | 10 µM | EC50 (MV-4-11 [7]): 12.9 µM
Cc1cnccc1-c1cccc2c(CCCOc3cc(C)c(Cl)c(C)c3)c(C)n(CCC(=O)NS(C)(=O)=O)c12 [Example 83, 3-(3-(3-(4-chloro-3,5-dimethylphenoxy)propyl)-2-methyl-7-(3-methylpyridin-4-yl)-1H-indol-1-yl)-N-(methylsulfonyl)propanamide] | ≤ 0.1 µM |  |  |  | EC50 (MV-4-11 [8]): 1.9 µM

Further lines, with some results ahead:

Ki [1, 10] | Ki ([1]; Table 4, read-out: Ki Mcl-1) | Ki [2] | EC50 (K562 [6]) | SMILES | further results
≤ 0.1 µM | 0.011 µM | 9.3 µM |  | Cc1cc(OCCCc2c(C)n(Cc3ccc(C(=O)O)o3)c3c(-c4c(C)n[nH]c4C)cccc23)cc(C)c1Cl [Example 99, 5-((3-(3-(4-chloro-3,5-dimethylphenoxy)propyl)-7-(3,5-dimethyl-1H-pyrazol-4-yl)-2-methyl-1H-indol-1-yl)methyl)furan-2-carboxylic acid] | Ki [9]: 2.9 µM
≤ 0.1 µM | 0.01 µM | 4.7 µM |  | Cc1cc(OCCCc2c(C)n(Cc3cccc(C(=O)O)c3)c3c(-c4c(C)n[nH]c4C)cccc23)cc(C)c1Cl [Example 100, 3-((3-(3-(4-chloro-3,5-dimethylphenoxy)propyl)-7-(3,5-dimethyl-1H-pyrazol-4-yl)-2-methyl-1H-indol-1-yl)methyl)benzoic acid] | Ki [9]: 1.2 µM
≤ 0.1 µM |  |  | 24.8 µM | Cc1cc(OCCCc2c(C)n(CCC(=O)O)c3c(-c4c(C)nn(C)c4C)c(Cl)ccc23)cc(C)c1Cl [Example 104, 3-(6-chloro-3-(3-(4-chloro-3,5-dimethylphenoxy)propyl)-2-methyl-7-(1,3,5-trimethyl-1H-pyrazol-4-yl)-1H-indol-1-yl)propanoic acid] | EC50 (NCI-H929): 20 µM
≤ 0.1 µM |  |  | 14.8 µM | Cc1cc(OCCCc2c(C(F)(F)F)n(Cc3ccc(CC(=O)O)cc3)c3c(-c4c(C)nn(C)c4C)cccc23)cc(C)c1Cl [Example 117, 2-(4-((3-(3-(4-chloro-3,5-dimethylphenoxy)propyl)-2-(trifluoromethyl)-7-(1,3,5-trimethyl-1H-pyrazol-4-yl)-1H-indol-1-yl)methyl)phenyl)acetic acid] | EC50 (NCI-H929): 8.8 µM
≤ 0.1 µM |  |  |  | Cc1cc(OCCCc2c(C(F)(F)F)n(CCC(=O)O)c3ccccc23)cc(C)c1Cl [Example 135, 3-(3-(3-(4-chloro-3,5-dimethylphenoxy)propyl)-2-(trifluoromethyl)-1H-indol-1-yl)propanoic acid] | 
